Reference: patent publication US8802597B2, “Herbicidal pyrimidines” (E I du Pont de Nemours and Company, priority 2003, dated 2014)
Like-named read-outs stand apart in the source and are kept apart here.

Columns and labels:
Type in all cases: in vivo
[1] = tested on: wheat (Triticum aestivum); assay: Test B pre/postemergence; details: Triticum aestivum, scale 0 to 100 (0 no effect, 100 complete control); for plant injury at 4 g/ha: 4 g ai/ha; for plant injury at 62 g/ha: 62 g ai/ha
In short: (§1)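 Compounds in non-phytotoxic solvent with surfactant applied preemergence to planted seeds or postemergence to plants 2 to 18 cm tall (1- to 4-leaf stage). Greenhouse 13 to 15 days, then visual rating against controls on a 0 to 100 scale (100 = complete control).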

[2] = tested on: velvetleaf (Abutilon theophrasti); assay: Test B pre/postemergence; details: Abutilon theophrasti; for pest or weed control at 4 g/ha: 4 g ai/ha; for pest or weed control at 62 g/ha: 62 g ai/ha
In short: as §1

[3] = tested on: giant foxtail (Setaria faberii); assay: Test B pre/postemergence; details: Setaria faberi; for pest or weed control at 4 g/ha: 4 g ai/ha; for pest or weed control at 62 g/ha: 62 g ai/ha
In short: as §1

[4] = tested on: barnyardgrass (Echinochloa crus-galli); assay: Test B pre/postemergence; details: Echinochloa crus-galli, scale 0 to 100 (0 no effect, 100 complete control); for pest or weed control at 4 g/ha: 4 g ai/ha; for pest or weed control at 62 g/ha: 62 g ai/ha
In short: as §1

[5] = tested on: cocklebur (Xanthium strumarium); assay: Test B pre/postemergence; details: Xanthium strumarium; for pest or weed control at 4 g/ha: 4 g ai/ha; for pest or weed control at 62 g/ha: 62 g ai/ha
In short: as §1

[6] = tested on: morningglory (Ipomoea coccinea); assay: Test B pre/postemergence; details: Ipomoea; for pest or weed control at 4 g/ha: 4 g ai/ha; for pest or weed control at 62 g/ha: 62 g ai/ha
In short: as §1

[7] = tested on: lambsquarters (Chenopodium album); assay: Test B pre/postemergence; details: Chenopodium album; for pest or weed control at 4 g/ha: 4 g ai/ha; for pest or weed control at 62 g/ha: 62 g ai/ha
In short: as §1

[8] = tested on: corn (Zea mays); assay: Test B pre/postemergence; details: Zea mays
In short: as §1

[9] = tested on: crabgrass (Digitaria sanguinalis); assay: Test B pre/postemergence; details: Digitaria sanguinalis; for pest or weed control at 4 g/ha: 4 g ai/ha; for pest or weed control at 62 g/ha: 62 g ai/ha
In short: as §1

[10] = tested on: Surinam grass (Brachiaria decumbens); assay: Test B pre/postemergence; details: Urochloa decumbens; for pest or weed control at 4 g/ha: 4 g ai/ha; for pest or weed control at 62 g/ha: 62 g ai/ha
In short: as §1

[11] = tested on: pigweed (Amaranthus retroflexus); assay: Test B pre/postemergence; details: Amaranthus retroflexus; for pest or weed control at 4 g/ha: 4 g ai/ha; for pest or weed control at 62 g/ha: 62 g ai/ha
In short: as §1

[12] = tested on: blackgrass (Alopecurus myosuroides); assay: Test B postemergence; details: Alopecurus myosuroides, post-emergence, scale 0 to 100 (0 no effect, 100 complete control), read-out: Blackgrass plant response rating
In short: as §1

[13] = tested on: wild oat (Avena fatua); assay: Test B postemergence; details: Avena fatua, post-emergence, scale 0 to 100 (0 no effect, 100 complete control), read-out: Oat, Wild plant response rating
In short: as §1

[14] = post-emergence, Postemergence, read-out: Wheat plant response rating
[15] = pre-emergence, Preemergence, read-out: Plant response rating, Wheat
[16] = post-emergence, Postemergence, scale 0 to 100 (0 no effect, 100 complete control), read-out: Velvetleaf plant response rating
[17] = post-emergence, Postemergence, scale 0 to 100 (0 no effect, 100 complete control), read-out: Foxtail, Giant plant response rating
[18] = post-emergence, Postemergence, read-out: Barnyardgrass plant response rating
[19] = pre-emergence, Preemergence, read-out: Plant response rating, Barnyardgrass
[20] = post-emergence, Postemergence, scale 0 to 100 (0 no effect, 100 complete control), read-out: Cocklebur plant response rating
[21] = post-emergence, Postemergence, scale 0 to 100 (0 no effect, 100 complete control), read-out: Morningglory plant response rating
[22] = post-emergence, Postemergence, scale 0 to 100 (0 no effect, 100 complete control), read-out: Lambsquarters plant response rating
[23] = post-emergence, Postemergence, scale 0 to 100 (0 no effect, 100 complete control), read-out: Crabgrass plant response rating
[24] = post-emergence, Postemergence, scale 0 to 100 (0 no effect, 100 complete control), read-out: Surinam Grass plant response rating
[25] = post-emergence, Postemergence, scale 0 to 100 (0 no effect, 100 complete control), read-out: Pigweed plant response rating

Nc1nc(-c2ccc(Cl)cc2)nc(C(=O)O)c1Cl [Compound 65, 6-amino-5-chloro-2-(4-chlorophenyl)-4-pyrimidinecarboxylic acid]
70%: pest or weed control at 62 g/ha ([2]; pre-emergence, Preemergence, scale 0 to 100, 0 no effect, 100 complete control, read-out: Plant response rating, Velvetleaf) | pest or weed control at 62 g/ha [3, 17] | pest or weed control at 62 g/ha [4, 18] | pest or weed control at 4 g/ha [6, 21] | pest or weed control at 62 g/ha ([9]; pre-emergence, Preemergence, scale 0 to 100, 0 no effect, 100 complete control, read-out: Plant response rating, Crabgrass) | pest or weed control at 4 g/ha [11, 25] | pest or weed control at 62 g/ha ([12]; 62 g ai/ha)
80%: plant injury at 62 g/ha [1, 15] | pest or weed control at 4 g/ha [5, 20] | pest or weed control at 62 g/ha ([5]; pre-emergence, Preemergence, scale 0 to 100, 0 no effect, 100 complete control, read-out: Plant response rating, Cocklebur) | pest or weed control at 62 g/ha [6, 21] | pest or weed control at 4 g/ha [7, 22] | plant injury at 62 g/ha ([8]; post-emergence, Postemergence, 62 g ai/ha, scale 0 to 100 (0 no effect, 100 complete control), read-out: Corn plant response rating) | pest or weed control at 62 g/ha [9, 23] | pest or weed control at 62 g/ha [10, 24]
0%: plant injury at 4 g/ha [1, 14] | pest or weed control at 4 g/ha ([2]; pre-emergence, Preemergence, scale 0 to 100 (0 no effect, 100 complete control), read-out: Plant response rating, Velvetleaf) | pest or weed control at 4 g/ha ([3]; pre-emergence, Preemergence, scale 0 to 100 (0 no effect, 100 complete control), read-out: Plant response rating, Foxtail, Giant) | pest or weed control at 4 g/ha [4, 19] | pest or weed control at 4 g/ha ([6]; pre-emergence, Preemergence, scale 0 to 100 (0 no effect, 100 complete control), read-out: Plant response rating, Morningglory) | Corn plant response rating (crop injury, 0 = no effect, 100 = complete kill) at 4 g/ha ([8]; pre-emergence, Preemergence, 4 g ai/ha, scale 0 to 100 (0 no effect, 100 complete control)) | Corn plant response rating (crop injury, 0 = no effect, 100 = complete kill) at 62 g/ha ([8]; pre-emergence, Preemergence, 62 g ai/ha, scale 0 to 100, 0 no effect, 100 complete control) | pest or weed control at 4 g/ha ([10]; pre-emergence, Preemergence, scale 0 to 100 (0 no effect, 100 complete control), read-out: Plant response rating, Surinam Grass) | pest or weed control at 4 g/ha ([13]; 4 g ai/ha)
10%: pest or weed control at 4 g/ha ([5]; pre-emergence, Preemergence, scale 0 to 100 (0 no effect, 100 complete control), read-out: Plant response rating, Cocklebur) | plant injury at 4 g/ha ([8]; post-emergence, Postemergence, 4 g ai/ha, scale 0 to 100 (0 no effect, 100 complete control), read-out: Corn plant response rating)
30%: pest or weed control at 62 g/ha ([3]; pre-emergence, Preemergence, scale 0 to 100, 0 no effect, 100 complete control, read-out: Plant response rating, Foxtail, Giant) | pest or weed control at 62 g/ha ([6]; pre-emergence, Preemergence, scale 0 to 100, 0 no effect, 100 complete control, read-out: Plant response rating, Morningglory) | pest or weed control at 4 g/ha ([7]; pre-emergence, Preemergence, scale 0 to 100 (0 no effect, 100 complete control), read-out: Plant response rating, Lambsquarters)
50%: plant injury at 62 g/ha [1, 14] | pest or weed control at 4 g/ha [2, 16]
40%: pest or weed control at 4 g/ha [3, 17] | pest or weed control at 62 g/ha [4, 19] | pest or weed control at 62 g/ha ([10]; pre-emergence, Preemergence, scale 0 to 100, 0 no effect, 100 complete control, read-out: Plant response rating, Surinam Grass) | pest or weed control at 62 g/ha ([13]; 62 g ai/ha)
20%: plant injury at 4 g/ha [1, 15] | pest or weed control at 4 g/ha [4, 18] | pest or weed control at 4 g/ha [9, 23] | pest or weed control at 4 g/ha ([9]; pre-emergence, Preemergence, scale 0 to 100 (0 no effect, 100 complete control), read-out: Plant response rating, Crabgrass) | pest or weed control at 4 g/ha [10, 24] | pest or weed control at 4 g/ha ([11]; pre-emergence, Preemergence, scale 0 to 100 (0 no effect, 100 complete control), read-out: Plant response rating, Pigweed) | pest or weed control at 4 g/ha ([12]; 4 g ai/ha)
90%: pest or weed control at 62 g/ha [2, 16] | pest or weed control at 62 g/ha ([7]; pre-emergence, Preemergence, scale 0 to 100, 0 no effect, 100 complete control, read-out: Plant response rating, Lambsquarters)
100%: pest or weed control at 62 g/ha [5, 20] | pest or weed control at 62 g/ha [7, 22] | pest or weed control at 62 g/ha [11, 25] | pest or weed control at 62 g/ha ([11]; pre-emergence, Preemergence, scale 0 to 100, 0 no effect, 100 complete control, read-out: Plant response rating, Pigweed)
